{"source": "EPA's ToxRefDB 2", "key": {"rat [1]": {"tested_on": "rat", "details": "Subchronic oral toxicity in rodents, sprague dawley, Feed, dose end: 13 week, group: systemic, systemic / clinical chemistry / protein / protein + systemic / in life observation / body weight / body weight + systemic / in life …"}, "rat [2]": {"tested_on": "rat", "details": "Combined chronic toxicity/carcinogenicity; sprague dawley; Oral; Feed; dose end: 24 month; group: systemic; systemic / in life observation / body weight / body weight + systemic / in life observation / body weight / body weight gain + systemic / …"}, "dog [3]": {"tested_on": "dog", "details": "Subchronic oral toxicity in nonrodent, beagle, Feed, dose end: 90 day, group: systemic"}, "rabbit": {"tested_on": "rabbit", "details": "Prenatal developmental toxicity study, new zealand white, Oral, Gavage/Intubation, dose end: 18 GD"}, "mouse [4]": {"tested_on": "mouse", "details": "Carcinogenicity, cd1, Oral, Feed, dose end: 94 week, group: systemic"}, "dog [5]": {"tested_on": "dog", "details": "Chronic toxicity; beagle; Oral; Feed; dose end: 52 week; group: systemic; systemic / clinical chemistry / alkaline phosphatase (alp/alk) / alkaline phosphatase (alp/alk) + systemic / clinical chemistry / …"}, "rat [6]": {"tested_on": "rat", "details": "Multigenerational reproductive toxicity study, wistar, Oral, Feed, dose end: 2 generation"}, "rat [7]": {"tested_on": "rat", "details": "Subchronic oral toxicity in rodents, fischer, Feed, dose end: 45 day, group: systemic, systemic / in life observation / body weight / body weight gain"}, "mouse [8]": {"tested_on": "mouse", "details": "Subchronic oral toxicity in rodents, b6c3f1, Feed, dose end: 45 day, group: systemic, systemic / in life observation / mortality / mortality"}, "rat [9]": {"tested_on": "rat", "details": "Carcinogenicity; fischer; Oral; Feed; dose end: 78 week; group: systemic; systemic / in life observation / body weight / body weight gain + systemic / pathology microscopic / peritoneum / neoplasm nos + systemic / …"}, "mouse [10]": {"tested_on": "mouse", "details": "Carcinogenicity, b6c3f1, Oral, Feed, dose end: 78 week, group: systemic"}, "mouse [11]": {"tested_on": "mouse", "details": "Prenatal developmental toxicity study, cd1, Oral, Gavage/Intubation, dose end: 15 GD"}, "[12]": {"details": "systemic / organ weight / liver / relative to body weight + systemic / pathology microscopic / liver / vacuolization"}, "[13]": {"details": "systemic / organ weight / liver / relative to body weight + systemic / pathology microscopic / liver / vacuolization + systemic / in life …"}, "[14]": {"details": "group: developmental, developmental / developmental malformation / bone / [other] + developmental / developmental malformation / bone / misshapen"}, "[15]": {"details": "group: maternal, reproductive / reproductive performance / aborted / aborted + reproductive / reproductive performance / postimplantation loss / …"}, "[16]": {"details": "systemic / in life observation / body weight / body weight gain + systemic / organ weight / liver / relative to body weight + systemic / …"}, "[17]": {"details": "group: offspring, systemic / in life observation / body weight / offspring (pup) weight"}, "[18]": {"details": "group: parental, systemic / in life observation / body weight / body weight + systemic / in life observation / body weight / body weight gain + systemic / in…"}, "[19]": {"details": "systemic / in life observation / body weight / body weight"}, "[20]": {"details": "systemic / in life observation / body weight / body weight + systemic / in life observation / mortality / mortality"}, "[21]": {"details": "group: developmental, developmental / developmental malformation / bone / [other] + developmental / developmental malformation / general / [other] + systemic / in…"}, "[22]": {"details": "group: maternal, reproductive / reproductive performance / implantations / implantations + reproductive / reproductive performance / resorptions / …"}, "[23]": {"details": "group: maternal, systemic / pathology gross / spleen / enlarged"}}, "data": [{"smiles": "COCC(C)N(C(=O)CCl)c1c(C)csc1C", "note": "(stereo not given) [Dimethenamid]", "values": [{"measurement": "LEL", "setting": "rat [1]", "result": 98, "unit": "mg/kg/day"}, {"measurement": "LOAEL", "setting": "rat [1]", "result": 98, "unit": "mg/kg/day"}, {"measurement": "NEL", "setting": "rat [1]", "result": 33.5, "unit": "mg/kg/day"}, {"measurement": "NOAEL", "setting": "rat [1]", "result": 33.5, "unit": "mg/kg/day"}, {"measurement": "LEL", "setting": "rat [2]", "result": 36, "unit": "mg/kg/day"}, {"measurement": "LOAEL", "setting": "rat [2]", "result": 36, "unit": "mg/kg/day"}, {"measurement": "NEL", "setting": "rat [2]", "result": 5.1, "unit": "mg/kg/day"}, {"measurement": "NOAEL", "setting": "rat [2]", "result": 5.1, "unit": "mg/kg/day"}, {"measurement": "LEL", "setting": "dog [3]; [12]", "result": 33.6, "unit": "mg/kg/day"}, {"measurement": "LOAEL", "setting": "dog [3]; [12]", "result": 33.6, "unit": "mg/kg/day"}, {"measurement": "NEL", "setting": "dog [3]; [13]", "result": 4.72, "unit": "mg/kg/day"}, {"measurement": "NOAEL", "setting": "dog [3]; [13]", "result": 4.72, "unit": "mg/kg/day"}, {"measurement": "LEL", "setting": "rabbit; [14]", "result": 150, "unit": "mg/kg/day"}, {"measurement": "LOAEL", "setting": "rabbit; [14]", "result": 150, "unit": "mg/kg/day"}, {"measurement": "NEL", "setting": "rabbit; [14]", "result": 75, "unit": "mg/kg/day"}, {"measurement": "NOAEL", "setting": "rabbit; [14]", "result": 75, "unit": "mg/kg/day"}, {"measurement": "LEL", "setting": "rabbit; [15]", "result": 150, "unit": "mg/kg/day"}, {"measurement": "LOAEL", "setting": "rabbit; [15]", "result": 150, "unit": "mg/kg/day"}, {"measurement": "NEL", "setting": "rabbit; [15]", "result": 75, "unit": "mg/kg/day"}, {"measurement": "NOAEL", "setting": "rabbit; [15]", "result": 75, "unit": "mg/kg/day"}, {"measurement": "LOAEL", "setting": "mouse [4]; systemic / in life observation / body weight / body weight gain", "result": 200, "unit": "mg/kg/day"}, {"measurement": "LEL", "setting": "mouse [4]; [16]", "result": 200, "unit": "mg/kg/day"}, {"measurement": "NEL", "setting": "mouse [4]; [16]", "result": 40.1, "unit": "mg/kg/day"}, {"measurement": "NOAEL", "setting": "mouse [4]; [16]", "result": 40.1, "unit": "mg/kg/day"}, {"measurement": "LEL", "setting": "dog [5]", "result": 48.7, "unit": "mg/kg/day"}, {"measurement": "LOAEL", "setting": "dog [5]", "result": 48.7, "unit": "mg/kg/day"}, {"measurement": "NEL", "setting": "dog [5]", "result": 10.1, "unit": "mg/kg/day"}, {"measurement": "NOAEL", "setting": "dog [5]", "result": 10.1, "unit": "mg/kg/day"}, {"measurement": "LEL", "setting": "rat [6]; [17]", "result": 150, "unit": "mg/kg/day"}, {"measurement": "LOAEL", "setting": "rat [6]; [17]", "result": 150, "unit": "mg/kg/day"}, {"measurement": "NEL", "setting": "rat [6]; [17]", "result": 36, "unit": "mg/kg/day"}, {"measurement": "NOAEL", "setting": "rat [6]; [17]", "result": 36, "unit": "mg/kg/day"}, {"measurement": "LEL", "setting": "rat [6]; [18]", "result": 150, "unit": "mg/kg/day"}, {"measurement": "LOAEL", "setting": "rat [6]; [18]", "result": 150, "unit": "mg/kg/day"}, {"measurement": "NEL", "setting": "rat [6]; [18]", "result": 36, "unit": "mg/kg/day"}, {"measurement": "NOAEL", "setting": "rat [6]; [18]", "result": 36, "unit": "mg/kg/day"}]}, {"smiles": "Nc1ccc(S(=O)(=O)c2ccc(N)cc2)cc1", "note": "[Dapsone]", "values": [{"measurement": "LEL", "setting": "rat [7]", "result": 60, "unit": "mg/kg/day"}, {"measurement": "LOAEL", "setting": "rat [7]", "result": 60, "unit": "mg/kg/day"}, {"measurement": "NEL", "setting": "rat [7]", "result": "< 60", "unit": "mg/kg/day"}, {"measurement": "NOAEL", "setting": "rat [7]", "result": "< 60", "unit": "mg/kg/day"}, {"measurement": "LEL", "setting": "mouse [8]", "result": 300, "unit": "mg/kg/day"}, {"measurement": "LOAEL", "setting": "mouse [8]", "result": "> 7500", "unit": "mg/kg/day"}, {"measurement": "NEL", "setting": "mouse [8]", "result": "< 300", "unit": "mg/kg/day"}, {"measurement": "NOAEL", "setting": "mouse [8]", "result": "≥ 7500", "unit": "mg/kg/day"}, {"measurement": "LEL", "setting": "rat [9]", "result": 30, "unit": "mg/kg/day"}, {"measurement": "LOAEL", "setting": "rat [9]", "result": "> 60", "unit": "mg/kg/day"}, {"measurement": "NEL", "setting": "rat [9]", "result": "< 30", "unit": "mg/kg/day"}, {"measurement": "NOAEL", "setting": "rat [9]", "result": "≥ 60", "unit": "mg/kg/day"}, {"measurement": "LOAEL", "setting": "mouse [10]; [19]", "result": 75, "unit": "mg/kg/day"}, {"measurement": "NOAEL", "setting": "mouse [10]; [19]", "result": "< 75", "unit": "mg/kg/day"}, {"measurement": "LEL", "setting": "mouse [10]; [20]", "result": 75, "unit": "mg/kg/day"}, {"measurement": "NEL", "setting": "mouse [10]; [20]", "result": "< 75", "unit": "mg/kg/day"}, {"measurement": "LEL", "setting": "mouse [11]; [21]", "result": 200, "unit": "mg/kg/day"}, {"measurement": "LOAEL", "setting": "mouse [11]; [21]", "result": "> 200", "unit": "mg/kg/day"}, {"measurement": "NEL", "setting": "mouse [11]; [21]", "result": 100, "unit": "mg/kg/day"}, {"measurement": "NOAEL", "setting": "mouse [11]; [21]", "result": "≥ 200", "unit": "mg/kg/day"}, {"measurement": "LOAEL", "setting": "mouse [11]; [22]", "result": "> 200", "unit": "mg/kg/day"}, {"measurement": "NOAEL", "setting": "mouse [11]; [22]", "result": "≥ 200", "unit": "mg/kg/day"}, {"measurement": "LEL", "setting": "mouse [11]; [23]", "result": 50, "unit": "mg/kg/day"}, {"measurement": "NEL", "setting": "mouse [11]; [23]", "result": "< 50", "unit": "mg/kg/day"}]}]}
